This assay deals with Mycobacterium tuberculosis. Put plainly: Antimycobacterial activity against Mycobacterium tuberculosis by NCCLS agar dilution method. The format is functional.

Each structure is given as a SMILES string.

Consider `COc1ccc(CC2C3=C(CCCC3)CCN2c2cc3c(cc2[N+](=O)[O-])c(=O)c(C(=O)O)cn3-c2ccc(F)cc2)cc1` (stereo unspecified), for which the “-logMIC” value is on record as 5.271.

For the compound `CC(C)(C)n1cc(C(=O)O)c(=O)c2cc([N+](=O)[O-])c(N3CCN(C(=O)c4ccco4)CC3)cc21`, the “-logMIC” value was 5.175.

For `CC(C)(C)n1cc(C(=O)O)c(=O)c2cc([N+](=O)[O-])c(N3CCSCC3)cc21`, the “-logMIC” value amounted to 5.097. On to `CCN(CC)C(=O)C1CCCN(c2cc3c(cc2[N+](=O)[O-])c(=O)c(C(=O)O)cn3C(C)(C)C)C1` (stereo unspecified), for which the “-logMIC” value is reported as 5.179.

In the case of `CC(C)(C)n1cc(C(=O)O)c(=O)c2cc([N+](=O)[O-])c(N3CCn4cc(C(=O)O)nc4C3)cc21`, the “-logMIC” value was found to be 5.163. In the case of `CC1CN(c2cc3c(cc2[N+](=O)[O-])c(=O)c(C(=O)O)cn3C2CC2)CC(C)O1` (stereo unspecified), the “-logMIC” value was 5.697.

On to `O=C(O)c1cn(-c2ccc(F)cc2)c2cc(N3CCN(Cc4ccc5c(c4)OCO5)CC3)c([N+](=O)[O-])cc2c1=O`, for which the “-logMIC” value came out at 5.545. Next, `O=C(O)c1cn(-c2ccc(F)cc2)c2cc(N3CCC(n4c(=O)[nH]c5cc(Cl)ccc54)CC3)c([N+](=O)[O-])cc2c1=O`: 5.266; `Cc1onc(-c2c(F)cccc2F)c1C(=O)N1CCN(c2cc3c(cc2[N+](=O)[O-])c(=O)c(C(=O)O)cn3-c2ccc(F)cc2)CC1`: 5.306. As for `O=C(O)c1cn(-c2ccc(F)cc2)c2cc(N3CCN(C(=O)C4COc5ccccc5O4)CC3)c([N+](=O)[O-])cc2c1=O` (stereo unspecified), the figure is 5.565. For `CC(C)(C)NC(=O)C1c2ccccc2CCN1c1cc2c(cc1[N+](=O)[O-])c(=O)c(C(=O)O)cn2C1CC1` (stereo unspecified), the “-logMIC” value is given as 5.81.

`CCN(CC)C(=O)C1CCCN(c2cc3c(cc2[N+](=O)[O-])c(=O)c(C(=O)O)cn3-c2ccc(F)cc2)C1` (stereo unspecified): the “-logMIC” value is given as 5.213. As for `CCN(CC)C(=O)C1CCCN(c2cc3c(cc2[N+](=O)[O-])c(=O)c(C(=O)O)cn3C2CC2)C1` (stereo unspecified), the “-logMIC” value was found to be 5.466.

For `O=C(O)c1cn(C2CC2)c2cc(N3CCC(O)(c4ccc(Cl)cc4)CC3)c([N+](=O)[O-])cc2c1=O`, the “-logMIC” value stood at 6.092. As for `O=C(O)c1cn(C2CC2)c2cc(N3CCSCC3)c([N+](=O)[O-])cc2c1=O`, the figure is 5.38. On to `O=C(O)c1cn(-c2ccc(F)cc2)c2cc(N3CCC(N4CCCCC4)CC3)c([N+](=O)[O-])cc2c1=O`, for which the “-logMIC” value turned out to be 5.199. As for `CC1CN(c2cc3c(cc2[N+](=O)[O-])c(=O)c(C(=O)O)cn3-c2ccc(F)cc2)CC(C)O1` (stereo unspecified), the figure is 5.452. As for `CC(C)(C)NC(=O)C1c2ccccc2CCN1c1cc2c(cc1[N+](=O)[O-])c(=O)c(C(=O)O)cn2-c1ccc(F)cc1` (stereo unspecified), the figure is 5.252.

Regarding `O=C(O)c1cn(-c2ccc(F)cc2)c2cc(N3CCN(C(=O)c4ccco4)CC3)c([N+](=O)[O-])cc2c1=O`, the “-logMIC” value came out at 5.209. In the case of `CC(C)(C)n1cc(C(=O)O)c(=O)c2cc([N+](=O)[O-])c(N3CCN(Cc4ccc5c(c4)OCO5)CC3)cc21`, the “-logMIC” value is 5.513.

`CC(C)(C)n1cc(C(=O)O)c(=O)c2cc([N+](=O)[O-])c(N3CCN(C(c4ccccc4)c4ccc(Cl)cc4)CC3)cc21` (stereo unspecified): the “-logMIC” value came to 5.264. For the compound `O=C(O)c1cn(-c2ccc(F)cc2)c2cc(N3CCSCC3)c([N+](=O)[O-])cc2c1=O`, the “-logMIC” value is reported as 4.837. On to `O=C(O)c1cn(-c2ccc(F)cc2)c2cc(N3CCC4(CC3)OCCO4)c([N+](=O)[O-])cc2c1=O`, for which the “-logMIC” value is on record as 5.176.

Take `O=C(O)c1cn(C2CC2)c2cc(N3CCN(C(c4ccccc4)c4ccc(Cl)cc4)CC3)c([N+](=O)[O-])cc2c1=O` (stereo unspecified): the “-logMIC” value was found to be 5.253. For the compound `O=C(O)c1cn(C2CC2)c2cc(N3CCC(N4CCCCC4)CC3)c([N+](=O)[O-])cc2c1=O`, the “-logMIC” value worked out at 6.367.

Turning to `O=C(O)c1cn2c(n1)CN(c1cc3c(cc1[N+](=O)[O-])c(=O)c(C(=O)O)cn3-c1ccc(F)cc1)CC2`, the “-logMIC” value amounted to 4.92. Next, `O=C(O)c1cn(C2CC2)c2cc(N3CCN(C(=O)C4COc5ccccc5O4)CC3)c([N+](=O)[O-])cc2c1=O` (stereo unspecified): 5.524. As for `O=C(O)c1cn(-c2ccc(F)cc2)c2cc(N3CCN(C(c4ccccc4)c4ccc(Cl)cc4)CC3)c([N+](=O)[O-])cc2c1=O` (stereo unspecified), the figure is 4.992. Next, `CC(C)(C)n1cc(C(=O)O)c(=O)c2cc([N+](=O)[O-])c(N3CCC4(CC3)OCCO4)cc21`: 5.128; `CN1CCN(c2cc3c(cc2[N+](=O)[O-])c(=O)c(C(=O)O)cn3C(C)(C)C)CC1c1ccccc1` (stereo unspecified): 4.793; `CC(C)(C)n1cc(C(=O)O)c(=O)c2cc([N+](=O)[O-])c(N3CCC(n4c(=O)[nH]c5cc(Cl)ccc54)CC3)cc21`: 5.237.
